{
  "source": "paper PMC8834506",
  "about": "“Optimization of Thymidine Kinase-Based Safety Switch for Neural Cell Therapy” (Cells, 2022)",
  "key": {"[1]": {"tested_on": "ReNcells Ki67-SR39h (proliferating)", "experiment": "ATP-based assay, EC50 and kinetics of cell death in proliferating neural progenitors", "design": "species or system human", "conditions": "for EC50: Homo sapiens, 96 h GCV exposure", "method": "We then compared the ability of GCV to kill proliferating NPC that expressed the SR39h thymidine kinase under the control of the ubiquitin (ReNcells Ubi-SR39h) or the Ki67 promoter. (ReNcells Ki67-SR39h) (Figure 4). For this purpose, we first performed a dose response to GCV on undifferentiated NPC. […] We then explored the kinetic of cell death with the suicide enzyme driven either by Ki67 or ubiquitin promoter for different concentrations of GCV. The rapidity of cell death induction but not its final extent was a function of the GCV concentrations. […] This was true for a short-term treatment at 24 h and 48 h, but not at the later time points at 72 h and 96 h (Figure 4D).\nFigure 4 EC50 and kinetics of GCV-induced cell death in proliferating and post-mitotic ReNcells. SR39h was expressed in ReNcells (immortalized neural precursor cells that can be differentiated to post-mitotic neurons) under the control of the two different promoters: Ki67 or ubiquitin. Wild type ReNcells were used as control. […] (B–D) Kinetics of cell death of SR39-expressing ReNcells cells either under the control of cycle promoter Ki67 or ubiquitin promoter with increasing GCV concentrations of 1, 10, and 100 µM. Cell viability was measured every 24 h using a bioluminescent ATP-based assay (n = 3). (E) ReNcells were differentiated toward post-mitotic neurons for 21 days then treated with GCV for 10 days. Cell viability was measured using an ATP-based assay. Results are mean + SD of three independent experiments performed in triplicates. (F) Immunostaining, Hoechst in blue and Beta III tubulin (βIII tub) in green, ReNcells were differentiated toward neurons for 21 days, then treated with 10 µM of GCV during 10 days. TEXT PRINTED IN THE PICTURE: (A) GCV: ReNcell wt: 1.2 x 10^-5; ReNcell Ki67-SR39h: 2.1 x 10^-9; ReNcell Ki67-SR39h: 2.1 x 10^-9 DOUBTS OF THE COPYIST ABOUT THIS PICTURE: Panel A table: the picture prints no measure or unit for the three values. The only printed substance label is the axis title 'GCV in M', and the table rows are cell lines, so they are written as targets of the values.\nCell culture plate (96 wells plate Corning #3907, Corning, Lonay, Switzerland) were pre-coated with 60 μL per well of Poly-L-ornithine solution (Sigma, Merk, Eysins, Switzerland) at 37 °C for 30 min. […] For EC50 assays, the medium was changed daily for 4 days, then cell viability was assessed using an ATP-based assay. EC50 values for each construct were calculated using a four parameters equation (GraphPad, Prism8, San Diego, CA, USA). […] Luminescence was measured using Spectra L384/L96 (0.2 sec exposure, Molecular devices, Biberach an der Riß, Germany)."}, "[2]": {"tested_on": "non-transduced hESC colonies", "experiment": "Morphology and size of hESC colonies upon nucleoside treatment", "type": "cell-based, human", "excerpt": "We next investigated the impact of ACV, PCV, and GCV on non-transduced hESC and neuroprogenitors (proliferating ReNcells). […] To further understand the impact of nucleoside analogs on non-transduced cells, we performed γ-H2A.X immunostaining (Figure 6B). There was a graded response, virtually identical in hESC and in neuroprogenitors. […] In addition, we investigated the morphology and size of non-transduced hESC colonies upon nucleoside treatment. […] Taken together, our findings confirm considerable toxicity of GCV, even in the absence of viral TK. Note that this was not the case for PCV despite the fact that it is a potent inducer of cell death in thymidine kinase-expressing cells.\nCells were exposed to 100 µM of the respective nucleoside for 48 h. DNA damage was monitored using γ-H2A.X marker in yellow and nuclei were counterstained with Hoechst. The white box in the first column indicates the area of the zoom for the hESC colonies."}},
  "note": "Read-outs that look alike come from different tables or passages of the source.",
  "data": [
    {"compound": "Nc1nc(O)c2ncn(COC(CO)CO)c2n1", "note": "[GCV, ganciclovir]", "values": [
      {"measurement": "Cell death induction kinetics, Ki67-SR39h compared to Ubi-SR39h", "setting": "[1]; 1 μM and 10 μM GCV, measured every 24 h", "value": "no significant differences"},
      {"measurement": "Cell death induction kinetics, Ki67-SR39h compared to Ubi-SR39h", "setting": "[1]; 100 μM GCV, at 24 h and 48 h, not at 72 h and 96 h", "value": "slightly slower dynamic of cell death"},
      {"measurement": "EC50", "setting": "[1]; 24-point dose response, n = 3, read-out: EC50 of GCV, ReNcell Ki67-SR39h", "value": 2.1, "unit": "nM"},
      {"measurement": "EC50", "setting": "[1]; undifferentiated NPC, read-out: EC50 of GCV", "value": "~2.1", "unit": "nM"},
      {"measurement": "Effect on morphology and size of colonies", "setting": "[2]", "value": "smaller colonies"}
    ]}
  ]
}
